Experiments:
[1] = biological target: PAK6 (human) (UniProt Q9NQU5)
[2] = biological target: EPHB3 (human) (UniProt P54753)
[3] = biological target: IGF1R (human) (UniProt P08069)
[4] = system: RPS6KB1 (human), P23443 [T412E]
[5] = biological target: EEF2K (human) (UniProt O00418)
[6] = biological target: MELK (human) (UniProt Q14680)
[7] = biological target: IKBKE (human) (UniProt Q14164)
[8] = biological target: SRPK1 (human) (UniProt Q96SB4)
[9] = biological target: MAPK9 (human) (UniProt P45984)
[10] = biological target: MARK3 (human) (UniProt P27448)
[11] = biological target: MAPK15 (human) (UniProt Q8TD08)
[12] = biological target: PAK7 (human) (UniProt Q9P286)
[13] = biological target: PRKCZ (human) (UniProt Q05513)
[14] = biological target: PHKG1 (human) (UniProt Q16816)
[15] = biological target: PLK1 (human) (UniProt P53350)
[16] = biological target: SYK (human) (UniProt P43405)
[17] = biological target: CSNK1D (human) (UniProt P48730)
[18] = biological target: CAMKK2 (human) (UniProt Q96RR4)
[19] = biological target: MKNK1 (human) (UniProt Q9BUB5)
[20] = biological target: CDK2 CCNA2 (human) (UniProt P20248+P24941)
[21] = system: ROCK2 (rat); details: accession and sequence are those of the human protein
[22] = biological target: PIM2 (human) (UniProt Q9P1W9)
[23] = biological target: GSK3B (human) (UniProt P49841)
[24] = biological target: MAPKAPK2 (human) (UniProt P49137)
[25] = biological target: STK3 (human) (UniProt Q13188)
[26] = biological target: SRC (human) (UniProt P12931)
[27] = biological target: PIM3 (human) (UniProt Q86V86)
[28] = biological target: NEK2 (human) (UniProt P51955)
[29] = biological target: RPS6KA5 KD1 KD2 (human) (UniProt O75582)
[30] = biological target: MAPK12 (human) (UniProt P53778)
[31] = biological target: DYRK3 (human) (UniProt O43781)
[32] = biological target: PRKACA (human) (UniProt P17612)
[33] = biological target: CHEK1 (human) (UniProt O14757)
[34] = biological target: TBK1 (human) (UniProt Q9UHD2)

Sequence of EPHB3 (human) (P54753 whole entry, looked up): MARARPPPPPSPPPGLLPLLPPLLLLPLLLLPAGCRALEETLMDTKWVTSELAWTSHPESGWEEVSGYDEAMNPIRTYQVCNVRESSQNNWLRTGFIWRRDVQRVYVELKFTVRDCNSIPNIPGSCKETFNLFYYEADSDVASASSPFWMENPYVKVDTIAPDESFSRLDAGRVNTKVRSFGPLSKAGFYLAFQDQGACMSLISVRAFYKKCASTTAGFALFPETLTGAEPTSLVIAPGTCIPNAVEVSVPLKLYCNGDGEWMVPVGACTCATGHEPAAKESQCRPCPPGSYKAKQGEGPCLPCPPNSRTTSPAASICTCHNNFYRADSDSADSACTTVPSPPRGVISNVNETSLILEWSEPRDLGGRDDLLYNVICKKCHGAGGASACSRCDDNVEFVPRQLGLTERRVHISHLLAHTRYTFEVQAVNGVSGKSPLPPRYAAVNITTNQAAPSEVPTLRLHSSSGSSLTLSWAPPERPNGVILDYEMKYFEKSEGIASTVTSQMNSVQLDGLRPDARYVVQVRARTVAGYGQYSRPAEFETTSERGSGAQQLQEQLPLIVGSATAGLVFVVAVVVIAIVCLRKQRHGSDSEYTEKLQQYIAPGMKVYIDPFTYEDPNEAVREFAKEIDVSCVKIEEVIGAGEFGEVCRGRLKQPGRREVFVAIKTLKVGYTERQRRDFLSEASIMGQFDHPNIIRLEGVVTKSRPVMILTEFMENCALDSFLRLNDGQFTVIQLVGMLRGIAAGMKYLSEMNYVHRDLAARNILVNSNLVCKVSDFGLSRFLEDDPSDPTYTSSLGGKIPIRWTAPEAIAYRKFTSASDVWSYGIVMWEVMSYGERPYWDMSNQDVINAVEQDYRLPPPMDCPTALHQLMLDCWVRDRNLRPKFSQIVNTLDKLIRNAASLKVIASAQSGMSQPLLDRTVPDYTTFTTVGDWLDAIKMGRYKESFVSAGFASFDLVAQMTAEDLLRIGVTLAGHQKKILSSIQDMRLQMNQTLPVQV
Sequence of IKBKE (human) (Q14164 whole entry, looked up): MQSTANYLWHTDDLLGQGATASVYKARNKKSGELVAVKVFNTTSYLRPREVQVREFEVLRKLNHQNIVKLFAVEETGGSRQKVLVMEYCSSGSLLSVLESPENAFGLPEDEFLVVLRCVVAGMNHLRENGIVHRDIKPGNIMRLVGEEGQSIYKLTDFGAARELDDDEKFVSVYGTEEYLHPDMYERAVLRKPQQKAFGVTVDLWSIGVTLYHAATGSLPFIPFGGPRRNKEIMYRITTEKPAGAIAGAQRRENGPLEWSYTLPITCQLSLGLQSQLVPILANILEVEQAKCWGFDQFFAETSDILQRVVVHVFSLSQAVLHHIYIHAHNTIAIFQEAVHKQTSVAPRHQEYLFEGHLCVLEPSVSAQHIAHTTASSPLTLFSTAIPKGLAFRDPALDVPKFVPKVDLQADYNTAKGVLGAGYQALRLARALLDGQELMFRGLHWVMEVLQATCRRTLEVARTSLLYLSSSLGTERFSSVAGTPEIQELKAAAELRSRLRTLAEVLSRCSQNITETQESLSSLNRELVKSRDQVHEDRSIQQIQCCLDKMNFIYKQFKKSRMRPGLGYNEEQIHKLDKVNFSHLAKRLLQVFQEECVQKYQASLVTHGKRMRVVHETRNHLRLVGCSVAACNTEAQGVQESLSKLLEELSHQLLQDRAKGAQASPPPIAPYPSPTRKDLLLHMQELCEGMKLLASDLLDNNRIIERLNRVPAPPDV
Sequence of MELK (human) (Q14680 whole entry, looked up): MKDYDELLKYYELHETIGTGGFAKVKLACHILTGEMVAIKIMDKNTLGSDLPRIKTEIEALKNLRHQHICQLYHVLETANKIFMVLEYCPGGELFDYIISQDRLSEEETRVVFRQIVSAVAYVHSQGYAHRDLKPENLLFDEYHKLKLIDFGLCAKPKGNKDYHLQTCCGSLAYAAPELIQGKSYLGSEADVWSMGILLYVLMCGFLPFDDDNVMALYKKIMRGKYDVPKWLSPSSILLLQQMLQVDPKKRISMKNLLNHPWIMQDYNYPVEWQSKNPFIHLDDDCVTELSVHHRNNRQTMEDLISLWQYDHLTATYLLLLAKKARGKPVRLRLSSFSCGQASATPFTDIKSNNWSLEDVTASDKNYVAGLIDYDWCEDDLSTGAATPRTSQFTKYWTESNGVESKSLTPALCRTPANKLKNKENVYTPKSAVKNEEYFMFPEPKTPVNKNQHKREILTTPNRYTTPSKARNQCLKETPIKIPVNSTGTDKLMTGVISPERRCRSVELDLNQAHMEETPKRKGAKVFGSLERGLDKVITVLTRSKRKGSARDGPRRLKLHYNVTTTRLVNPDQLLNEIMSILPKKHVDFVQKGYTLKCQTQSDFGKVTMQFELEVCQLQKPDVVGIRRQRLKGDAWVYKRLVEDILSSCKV
Sequence of PHKG1 (human) (Q16816 whole entry, looked up): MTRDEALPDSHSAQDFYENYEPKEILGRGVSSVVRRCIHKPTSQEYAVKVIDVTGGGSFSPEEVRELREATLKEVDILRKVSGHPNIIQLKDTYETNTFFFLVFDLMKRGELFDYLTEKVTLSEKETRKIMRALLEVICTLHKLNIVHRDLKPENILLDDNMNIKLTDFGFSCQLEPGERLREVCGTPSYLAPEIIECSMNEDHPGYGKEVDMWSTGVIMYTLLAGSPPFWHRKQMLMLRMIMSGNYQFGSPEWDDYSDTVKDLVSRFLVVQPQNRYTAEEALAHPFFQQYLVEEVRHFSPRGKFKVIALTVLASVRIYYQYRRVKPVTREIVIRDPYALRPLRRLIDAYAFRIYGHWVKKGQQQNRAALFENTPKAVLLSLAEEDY
Sequence of PLK1 (human) (P53350 whole entry, looked up): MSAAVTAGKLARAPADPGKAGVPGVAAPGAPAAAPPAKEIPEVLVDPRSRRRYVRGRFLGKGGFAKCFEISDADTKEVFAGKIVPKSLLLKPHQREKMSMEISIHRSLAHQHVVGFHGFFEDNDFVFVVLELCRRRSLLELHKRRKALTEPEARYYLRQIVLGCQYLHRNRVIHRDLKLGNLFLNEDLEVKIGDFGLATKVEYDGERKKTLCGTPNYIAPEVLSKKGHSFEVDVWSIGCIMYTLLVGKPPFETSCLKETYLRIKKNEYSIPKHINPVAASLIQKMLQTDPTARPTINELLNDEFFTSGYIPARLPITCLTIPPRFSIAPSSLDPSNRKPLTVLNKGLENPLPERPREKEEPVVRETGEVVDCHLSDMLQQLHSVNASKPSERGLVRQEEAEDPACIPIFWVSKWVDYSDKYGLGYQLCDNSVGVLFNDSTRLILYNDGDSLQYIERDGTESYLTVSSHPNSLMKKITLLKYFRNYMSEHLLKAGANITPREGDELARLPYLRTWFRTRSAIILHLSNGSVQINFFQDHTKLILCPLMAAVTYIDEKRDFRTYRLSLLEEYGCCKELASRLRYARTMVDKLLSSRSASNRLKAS
Sequence of PAK6 (human) (Q9NQU5 whole entry, looked up): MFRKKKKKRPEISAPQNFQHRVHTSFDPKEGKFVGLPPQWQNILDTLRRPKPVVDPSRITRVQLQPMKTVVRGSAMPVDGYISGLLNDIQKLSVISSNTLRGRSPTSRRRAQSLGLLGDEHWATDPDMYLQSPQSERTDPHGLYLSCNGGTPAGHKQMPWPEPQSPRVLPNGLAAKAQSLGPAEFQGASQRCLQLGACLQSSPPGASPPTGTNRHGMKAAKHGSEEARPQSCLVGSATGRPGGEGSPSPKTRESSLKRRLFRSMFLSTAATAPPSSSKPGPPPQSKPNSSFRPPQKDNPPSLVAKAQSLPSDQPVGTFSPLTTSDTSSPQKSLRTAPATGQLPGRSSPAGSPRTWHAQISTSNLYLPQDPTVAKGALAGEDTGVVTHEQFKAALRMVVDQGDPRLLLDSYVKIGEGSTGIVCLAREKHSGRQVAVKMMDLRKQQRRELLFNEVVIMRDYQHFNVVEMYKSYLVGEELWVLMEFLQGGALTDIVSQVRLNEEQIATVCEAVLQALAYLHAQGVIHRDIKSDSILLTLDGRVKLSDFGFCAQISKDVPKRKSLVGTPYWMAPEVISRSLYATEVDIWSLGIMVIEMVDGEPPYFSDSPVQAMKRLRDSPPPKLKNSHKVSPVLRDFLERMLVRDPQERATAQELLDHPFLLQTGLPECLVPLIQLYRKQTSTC
Sequence of MAPK15 (human) (Q8TD08 whole entry, looked up): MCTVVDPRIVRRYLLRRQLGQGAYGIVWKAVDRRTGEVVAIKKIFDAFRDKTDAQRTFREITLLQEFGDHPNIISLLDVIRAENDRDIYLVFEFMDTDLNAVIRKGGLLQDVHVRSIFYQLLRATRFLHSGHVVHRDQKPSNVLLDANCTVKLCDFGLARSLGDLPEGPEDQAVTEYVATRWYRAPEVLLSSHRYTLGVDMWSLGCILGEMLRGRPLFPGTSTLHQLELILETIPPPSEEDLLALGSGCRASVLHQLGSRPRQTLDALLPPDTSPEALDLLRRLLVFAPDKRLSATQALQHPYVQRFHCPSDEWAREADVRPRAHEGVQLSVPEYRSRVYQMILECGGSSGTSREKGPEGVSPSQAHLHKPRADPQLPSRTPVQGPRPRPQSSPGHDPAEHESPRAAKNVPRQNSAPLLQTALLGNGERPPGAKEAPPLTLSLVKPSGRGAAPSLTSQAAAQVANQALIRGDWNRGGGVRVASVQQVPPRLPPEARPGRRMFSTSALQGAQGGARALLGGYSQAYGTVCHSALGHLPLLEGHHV
Sequence of PIM2 (human) (Q9P1W9 whole entry, looked up): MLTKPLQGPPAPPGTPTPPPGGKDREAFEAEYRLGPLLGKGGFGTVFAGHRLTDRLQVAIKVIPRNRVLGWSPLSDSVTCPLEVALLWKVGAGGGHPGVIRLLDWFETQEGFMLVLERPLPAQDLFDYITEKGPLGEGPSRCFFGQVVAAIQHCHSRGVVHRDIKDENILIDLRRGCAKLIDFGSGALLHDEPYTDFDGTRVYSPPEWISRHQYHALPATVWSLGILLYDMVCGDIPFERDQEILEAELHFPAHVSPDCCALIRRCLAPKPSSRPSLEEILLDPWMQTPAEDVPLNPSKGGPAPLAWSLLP

With `COC(=O)Nc1ccc(-c2nc(N3CCOCC3)c3cnn(C4CCN(C(=O)OC)CC4)c3n2)cc1` the per cent of control ([1]; compound 1.0 µM) was 99%, the per cent of control ([1]; compound 10.0 µM) was 90% and the per cent of control ([2]; compound 1.0 µM) was 100%. For the same compound, the per cent of control ([2]; compound 10.0 µM) was 116%, the per cent of control ([3]; compound 1.0 µM) was 108% and the per cent of control ([3]; compound 10.0 µM) was 101%. It also gave a per cent of control ([4]; compound 1.0 µM) of 94%, a per cent of control ([4]; compound 10.0 µM) of 93% and a per cent of control ([5]; compound 1.0 µM) of 97%. It also gave a per cent of control ([5]; compound 10.0 µM) of 106%, a per cent of control ([6]; compound 1.0 µM) of 87% and a per cent of control ([6]; compound 10.0 µM) of 75%. For the same compound, the per cent of control ([7]; compound 1.0 µM) was 90%, the per cent of control ([7]; compound 10.0 µM) was 90% and the per cent of control ([8]; compound 1.0 µM) was 109%. For the same compound, the per cent of control ([8]; compound 10.0 µM) was 102%, the per cent of control ([9]; compound 1.0 µM) was 92% and the per cent of control ([9]; compound 10.0 µM) was 89%. The per cent of control ([10]; compound 1.0 µM) was 92%, the per cent of control ([10]; compound 10.0 µM) was 107% and the per cent of control ([11]; compound 1.0 µM) was 94%. It also gave a per cent of control ([11]; compound 10.0 µM) of 98%, a per cent of control ([12]; compound 1.0 µM) of 97% and a per cent of control ([12]; compound 10.0 µM) of 87%. It also gave a per cent of control ([13]; compound 1.0 µM) of 93%, a per cent of control ([13]; compound 10.0 µM) of 106% and a per cent of control ([14]; compound 1.0 µM) of 108%. For the same compound, the per cent of control ([14]; compound 10.0 µM) was 93%, the per cent of control ([15]; compound 1.0 µM) was 105% and the per cent of control ([15]; compound 10.0 µM) was 88%. It also gave a per cent of control ([16]; compound 1.0 µM) of 124%, a per cent of control ([16]; compound 10.0 µM) of 127% and a per cent of control ([17]; compound 1.0 µM) of 90%. For the same compound, the per cent of control ([17]; compound 10.0 µM) was 92%, the per cent of control ([18]; compound 1.0 µM) was 102% and the per cent of control ([18]; compound 10.0 µM) was 95%. It also gave a per cent of control ([19]; compound 1.0 µM) of 96%, a per cent of control ([19]; compound 10.0 µM) of 92% and a per cent of control ([20]; compound 1.0 µM) of 111%. The per cent of control ([20]; compound 10.0 µM) was 104%, the per cent of control ([21]; compound 1.0 µM) was 92% and the per cent of control ([21]; compound 10.0 µM) was 97%. For the same compound, the per cent of control ([22]; compound 1.0 µM) was 81%, the per cent of control ([22]; compound 10.0 µM) was 80% and the per cent of control ([23]; compound 1.0 µM) was 86%. For the same compound, the per cent of control ([23]; compound 10.0 µM) was 93%, the per cent of control ([24]; compound 1.0 µM) was 98% and the per cent of control ([24]; compound 10.0 µM) was 91%. It also gave a per cent of control ([25]; compound 1.0 µM) of 85%, a per cent of control ([25]; compound 10.0 µM) of 96% and a per cent of control ([26]; compound 1.0 µM) of 90%. It also gave a per cent of control ([26]; compound 10.0 µM) of 67%, a per cent of control ([27]; compound 1.0 µM) of 87% and a per cent of control ([27]; compound 10.0 µM) of 80%. The per cent of control ([28]; compound 1.0 µM) was 93%, the per cent of control ([28]; compound 10.0 µM) was 101% and the per cent of control ([29]; compound 1.0 µM) was 83%. The per cent of control ([29]; compound 10.0 µM) was 86%, the per cent of control ([30]; compound 1.0 µM) was 55% and the per cent of control ([30]; compound 10.0 µM) was 17%. For the same compound, the per cent of control ([31]; compound 1.0 µM) was 84%, the per cent of control ([31]; compound 10.0 µM) was 77% and the per cent of control ([32]; compound 1.0 µM) was 103%. The per cent of control ([32]; compound 10.0 µM) was 100%, the per cent of control ([33]; compound 1.0 µM) was 96% and the per cent of control ([33]; compound 10.0 µM) was 92%. It also gave a per cent of control ([34]; compound 1.0 µM) of 96% and a per cent of control ([34]; compound 10.0 µM) of 94%.
In the case of `CC(C)n1nc(-c2cc3cc(O)ccc3[nH]2)c2c(N)ncnc21`, the per cent of control ([1]; compound 1.0 µM) is reported as 80%, the per cent of control ([1]; compound 10.0 µM) is reported as 38% and the per cent of control ([2]; compound 1.0 µM) is reported as 18%. For the same compound, the per cent of control ([2]; compound 10.0 µM) was 5%, the per cent of control ([3]; compound 1.0 µM) was 103% and the per cent of control ([3]; compound 10.0 µM) was 89%. It also gave a per cent of control ([4]; compound 1.0 µM) of 80%, a per cent of control ([4]; compound 10.0 µM) of 50% and a per cent of control ([5]; compound 1.0 µM) of 115%. For the same compound, the per cent of control ([5]; compound 10.0 µM) was 106%, the per cent of control ([6]; compound 1.0 µM) was 26% and the per cent of control ([6]; compound 10.0 µM) was 13%. It also gave a per cent of control ([7]; compound 1.0 µM) of 86%, a per cent of control ([7]; compound 10.0 µM) of 64% and a per cent of control ([8]; compound 1.0 µM) of 86%. It also gave a per cent of control ([8]; compound 10.0 µM) of 63%, a per cent of control ([9]; compound 1.0 µM) of 103% and a per cent of control ([10]; compound 1.0 µM) of 67%. The per cent of control ([10]; compound 10.0 µM) was 31%, the per cent of control ([11]; compound 1.0 µM) was 50% and the per cent of control ([11]; compound 10.0 µM) was 6%. It also gave a per cent of control ([12]; compound 1.0 µM) of 69%, a per cent of control ([12]; compound 10.0 µM) of 34% and a per cent of control ([13]; compound 1.0 µM) of 91%. It also gave a per cent of control ([13]; compound 10.0 µM) of 51%, a per cent of control ([14]; compound 1.0 µM) of 72% and a per cent of control ([14]; compound 10.0 µM) of 25%. For the same compound, the per cent of control ([15]; compound 1.0 µM) was 89%, the per cent of control ([15]; compound 10.0 µM) was 47% and the per cent of control ([16]; compound 1.0 µM) was 89%. The per cent of control ([16]; compound 10.0 µM) was 61%, the per cent of control ([17]; compound 1.0 µM) was 50% and the per cent of control ([17]; compound 10.0 µM) was 9%. It also gave a per cent of control ([18]; compound 1.0 µM) of 72%, a per cent of control ([18]; compound 10.0 µM) of 30% and a per cent of control ([19]; compound 1.0 µM) of 51%. For the same compound, the per cent of control ([19]; compound 10.0 µM) was 12%, the per cent of control ([20]; compound 1.0 µM) was 78% and the per cent of control ([20]; compound 10.0 µM) was 40%. It also gave a per cent of control ([21]; compound 1.0 µM) of 105%, a per cent of control ([21]; compound 10.0 µM) of 77% and a per cent of control ([22]; compound 1.0 µM) of 110%. The per cent of control ([22]; compound 10.0 µM) was 36%, the per cent of control ([23]; compound 1.0 µM) was 103% and the per cent of control ([23]; compound 10.0 µM) was 60%. It also gave a per cent of control ([24]; compound 1.0 µM) of 96%, a per cent of control ([24]; compound 10.0 µM) of 94% and a per cent of control ([27]; compound 1.0 µM) of 59%. For the same compound, the per cent of control ([27]; compound 10.0 µM) was 13%, the per cent of control ([28]; compound 1.0 µM) was 86% and the per cent of control ([28]; compound 10.0 µM) was 54%. The per cent of control ([29]; compound 1.0 µM) was 105%, the per cent of control ([29]; compound 10.0 µM) was 49% and the per cent of control ([30]; compound 1.0 µM) was 96%. For the same compound, the per cent of control ([30]; compound 10.0 µM) was 72%, the per cent of control ([31]; compound 1.0 µM) was 10% and the per cent of control ([31]; compound 10.0 µM) was 2%. For the same compound, the per cent of control ([32]; compound 1.0 µM) was 94%, the per cent of control ([32]; compound 10.0 µM) was 45% and the per cent of control ([33]; compound 1.0 µM) was 91%. For the same compound, the per cent of control ([33]; compound 10.0 µM) was 34%, the per cent of control ([34]; compound 1.0 µM) was 97% and the per cent of control ([34]; compound 10.0 µM) was 95%.

Reference: the kinase profiling compilation of Christmann-Franck et al. (2016)
